Source: ChEMBL document CHEMBL1143297, “Synthesis and CHK1 inhibitory potency of Hymenialdisine analogues” (Bioorg Med Chem Lett, 2009)
Active and inactive are the calls of the source. The rule behind the calls is not given here.

Columns and labels:
[1] = target: T1, Serine/threonine-protein kinase Chk1 (Homo sapiens, UniProt O14757); test: Inhibition of CHK1
T1 sequence (O14757 whole entry): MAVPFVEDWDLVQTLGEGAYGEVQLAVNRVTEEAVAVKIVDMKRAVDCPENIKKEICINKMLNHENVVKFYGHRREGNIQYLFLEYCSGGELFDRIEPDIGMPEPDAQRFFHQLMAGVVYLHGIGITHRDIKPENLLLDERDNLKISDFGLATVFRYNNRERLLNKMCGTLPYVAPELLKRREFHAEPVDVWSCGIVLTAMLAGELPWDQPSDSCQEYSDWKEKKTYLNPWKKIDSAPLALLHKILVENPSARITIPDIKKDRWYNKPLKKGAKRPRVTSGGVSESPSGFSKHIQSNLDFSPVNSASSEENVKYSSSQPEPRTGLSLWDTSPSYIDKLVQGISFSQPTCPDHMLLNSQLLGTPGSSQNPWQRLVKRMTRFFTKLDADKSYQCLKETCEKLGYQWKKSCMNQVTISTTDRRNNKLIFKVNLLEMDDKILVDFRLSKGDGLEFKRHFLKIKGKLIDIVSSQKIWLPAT

[2] = target: Serine/threonine-protein kinase SIK1 (Homo sapiens) (UniProt P57059); test: Inhibition of SIK
[3] = target: Receptor-type tyrosine-protein kinase FLT3 (Homo sapiens) (UniProt P36888); test: Inhibition of FLT3
[4] = target: Glycogen synthase kinase-3 beta (Homo sapiens) (UniProt P49841); test: Inhibition of GSK3-beta
[5] = target: T2, NUAK family SNF1-like kinase 1 (Homo sapiens) (UniProt O60285); test: Inhibition of ARK5
T2 sequence (whole entry): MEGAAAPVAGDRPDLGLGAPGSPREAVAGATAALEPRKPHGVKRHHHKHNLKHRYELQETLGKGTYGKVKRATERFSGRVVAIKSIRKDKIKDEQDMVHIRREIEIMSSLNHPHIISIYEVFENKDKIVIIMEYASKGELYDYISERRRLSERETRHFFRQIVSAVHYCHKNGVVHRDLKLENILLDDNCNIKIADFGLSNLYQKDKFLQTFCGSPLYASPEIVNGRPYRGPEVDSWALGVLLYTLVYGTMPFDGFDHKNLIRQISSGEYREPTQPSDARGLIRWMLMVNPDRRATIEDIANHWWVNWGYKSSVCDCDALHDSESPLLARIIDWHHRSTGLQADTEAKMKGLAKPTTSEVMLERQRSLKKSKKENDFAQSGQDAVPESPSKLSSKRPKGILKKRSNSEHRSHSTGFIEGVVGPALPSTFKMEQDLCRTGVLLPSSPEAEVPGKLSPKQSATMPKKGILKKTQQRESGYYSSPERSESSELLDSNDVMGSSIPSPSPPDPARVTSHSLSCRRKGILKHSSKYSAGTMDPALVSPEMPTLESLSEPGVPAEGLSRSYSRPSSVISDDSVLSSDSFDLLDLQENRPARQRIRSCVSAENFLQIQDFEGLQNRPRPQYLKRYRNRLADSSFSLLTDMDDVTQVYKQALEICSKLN

Sequence of Glycogen synthase kinase-3 beta (Homo sapiens) (P49841 whole entry, looked up): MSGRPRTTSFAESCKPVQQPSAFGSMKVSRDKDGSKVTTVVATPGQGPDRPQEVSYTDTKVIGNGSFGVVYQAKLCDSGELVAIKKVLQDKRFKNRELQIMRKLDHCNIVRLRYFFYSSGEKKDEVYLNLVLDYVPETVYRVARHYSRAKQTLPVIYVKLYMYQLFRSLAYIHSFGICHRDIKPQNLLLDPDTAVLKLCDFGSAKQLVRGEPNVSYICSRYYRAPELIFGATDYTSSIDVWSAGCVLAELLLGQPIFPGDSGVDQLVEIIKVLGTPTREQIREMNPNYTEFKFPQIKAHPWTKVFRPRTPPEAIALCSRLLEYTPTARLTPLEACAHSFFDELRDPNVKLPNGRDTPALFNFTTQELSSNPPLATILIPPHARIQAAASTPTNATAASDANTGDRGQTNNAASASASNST
Sequence of Receptor-type tyrosine-protein kinase FLT3 (Homo sapiens) (P36888 whole entry): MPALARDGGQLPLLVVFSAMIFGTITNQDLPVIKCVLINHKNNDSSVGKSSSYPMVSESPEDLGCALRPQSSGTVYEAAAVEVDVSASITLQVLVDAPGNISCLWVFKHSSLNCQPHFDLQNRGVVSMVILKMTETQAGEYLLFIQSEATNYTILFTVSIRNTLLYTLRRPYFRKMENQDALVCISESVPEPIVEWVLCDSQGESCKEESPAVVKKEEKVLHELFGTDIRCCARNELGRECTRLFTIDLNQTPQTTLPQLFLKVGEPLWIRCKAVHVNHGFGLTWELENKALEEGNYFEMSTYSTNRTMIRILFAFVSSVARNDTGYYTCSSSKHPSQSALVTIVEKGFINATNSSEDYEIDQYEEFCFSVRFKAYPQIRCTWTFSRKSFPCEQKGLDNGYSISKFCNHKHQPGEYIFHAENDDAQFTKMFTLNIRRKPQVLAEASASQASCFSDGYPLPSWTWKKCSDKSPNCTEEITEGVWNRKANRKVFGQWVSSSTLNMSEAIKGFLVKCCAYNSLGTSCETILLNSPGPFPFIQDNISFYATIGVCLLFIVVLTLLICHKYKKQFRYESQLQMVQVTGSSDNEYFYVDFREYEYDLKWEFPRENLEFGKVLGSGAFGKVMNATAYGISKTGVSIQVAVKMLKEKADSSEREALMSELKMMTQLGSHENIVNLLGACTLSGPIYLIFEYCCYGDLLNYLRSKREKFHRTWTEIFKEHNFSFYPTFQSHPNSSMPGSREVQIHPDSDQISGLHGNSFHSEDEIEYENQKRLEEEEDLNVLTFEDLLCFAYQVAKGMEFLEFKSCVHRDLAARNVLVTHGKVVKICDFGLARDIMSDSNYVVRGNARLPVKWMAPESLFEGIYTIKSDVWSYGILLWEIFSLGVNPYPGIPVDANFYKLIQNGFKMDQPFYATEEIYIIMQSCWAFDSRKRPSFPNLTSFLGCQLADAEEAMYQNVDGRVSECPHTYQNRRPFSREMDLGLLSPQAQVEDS
Sequence of Serine/threonine-protein kinase SIK1 (Homo sapiens) (P57059 whole entry): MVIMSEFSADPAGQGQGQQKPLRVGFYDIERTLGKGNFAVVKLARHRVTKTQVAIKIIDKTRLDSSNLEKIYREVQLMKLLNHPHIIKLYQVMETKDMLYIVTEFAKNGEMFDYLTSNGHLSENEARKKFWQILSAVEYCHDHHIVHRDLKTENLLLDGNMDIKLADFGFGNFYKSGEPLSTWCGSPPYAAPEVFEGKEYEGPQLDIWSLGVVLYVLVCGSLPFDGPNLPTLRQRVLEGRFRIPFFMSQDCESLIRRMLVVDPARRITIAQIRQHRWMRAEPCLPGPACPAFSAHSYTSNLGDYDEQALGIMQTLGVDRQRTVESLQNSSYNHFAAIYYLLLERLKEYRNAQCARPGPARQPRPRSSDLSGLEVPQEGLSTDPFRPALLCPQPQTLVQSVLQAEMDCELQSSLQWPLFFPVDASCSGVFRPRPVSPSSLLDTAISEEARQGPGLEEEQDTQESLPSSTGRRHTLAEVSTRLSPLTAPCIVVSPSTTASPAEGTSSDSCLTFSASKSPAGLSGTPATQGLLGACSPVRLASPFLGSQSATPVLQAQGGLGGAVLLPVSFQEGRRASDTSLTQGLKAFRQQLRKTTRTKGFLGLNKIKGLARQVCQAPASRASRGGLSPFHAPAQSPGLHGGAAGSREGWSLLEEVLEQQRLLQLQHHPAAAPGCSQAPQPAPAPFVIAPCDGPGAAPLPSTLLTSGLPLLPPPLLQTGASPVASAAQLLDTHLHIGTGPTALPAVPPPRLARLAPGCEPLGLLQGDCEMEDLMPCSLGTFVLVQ

| SMILES | IC50 [1] [µM] | further results |
| --- | --- | --- |
| NC1=NC(=O)/C(=C2\CCNC(=O)c3[nH]c4c(sc5ccccc54)c32)S1 | > 10 | – |
| NC1=N/C(=C2/CCNC(=O)c3[nH]ccc32)C(=O)N1 [DEBROMOHYMENIALDISINE] | 0.33 | – |
| NC1=NC(=O)/C(=C2\CCNC(=O)c3[nH]c4cc(Br)sc4c32)N1 | 0.46 | – |
| NC1=NC(=O)/C(=C2\CCNC(=O)c3[nH]c(Br)c(Br)c32)N1 | 0.1 | – |
| NC(=O)c1csc2c3c([nH]c12)C(=O)NCC/C3=C1/NC(N)=NC1=O | 0.15 | – |
| NC1=NC(=O)/C(=C2\CCNC(=O)c3[nH]c4cc(Cl)sc4c32)N1 | 0.3 | – |
| COc1ccc(Cn2c3c(c4scc(Br)c42)/C(=C2\NC(N)=NC2=O)CCNC3=O)cc1 | > 10 | – |
| O=C1N=C(NCCO)N/C1=C1/CCNC(=O)c2[nH]c3ccsc3c21 | 1.7 | – |
| N#Cc1csc2c3c([nH]c12)C(=O)NCC/C3=C1/NC(N)=NC1=O | 0.029 | – |
| O=C1N=C(NCCO)N/C1=C1/CCNC(=O)c2[nH]c3c(Br)csc3c21 | 0.28 | – |
| NC1=NC(=O)/C(=C2\CCNC(=O)c3[nH]c4c(sc5ccccc54)c32)N1 | 0.23 | – |
| Cn1c2c(c3sccc31)/C(=C1\NC(N)=NC1=O)CCNC2=O | > 10 | – |
| NC1=NC(=O)/C(=C2\CCNC(=O)c3[nH]c4c(-c5ccccc5)csc4c32)S1 | > 10 | – |
| Nc1nc(C2=C3C(=Nc4ccccc43)C(=O)NCC2)c(O)[nH]1 | 0.47 | – |
| NC1=NC(=O)/C(=C2\CCNC(=O)c3[nH]c4c(Cl)c(Cl)sc4c32)N1 | 0.89 | – |
| NC1=NC(=O)/C(=C2\CCNC(=O)c3[nH]c4c(Br)csc4c32)S1 | 0.19 | – |
| NC1=NC(=O)/C(=C2\CCNC(=O)c3[nH]c4c(Cl)csc4c32)N1 | 0.14 | – |
| O=C(O)CNC1=NC(=O)/C(=C2\CCNC(=O)c3[nH]c4c(Br)csc4c32)N1 | 0.26 | – |
| NC1=NC(=O)/C(=C2\CCNC(=O)c3[nH]c4ccsc4c32)S1 | 0.18 | – |
| NC1=NC(=O)/C(=C2\CCNC(=O)c3[nH]c4ccsc4c32)N1 | 0.15 | – |
| NC1=NC(=O)/C(=C2\CCNC(=O)c3[nH]c4c(-c5ccccc5)csc4c32)N1 | 1.3 | – |
| NC1=NC(=O)/C(=C2\CCNC(=O)c3[nH]c(Br)cc32)N1 [HYMENIALDISINE] | 1.9 | – |
| NC1=NC(=O)/C(=C2\CCNC(=O)c3[nH]c4c(Br)csc4c32)N1 | 0.014 | Activity [2]: Active; Activity [3]: Active; Activity [4]: Active; Activity [5]: Active |
